Laboratory results as given in patent US12568964B2 (priority 2019, dated 2026).
Read-outs that look alike come from different tables or passages of the source.

Test system: Xylella fastidiosa
Type: in vivo
Details: 5 treatments; for Phenotypic improvement of infected olive plants after treatment: 5% w/v, sprayed on foliage, trunk and adjacent soil; for State of treated plants at 9 months after the treatment: 5% w/v in bidistilled water, 9 months after treatment

| Compound | Phenotypic improvement of infected olive plants after treatment (Example 3.4: four olive trees, 150 mg per plant suspended in bidistilled water, one every 5 days) | State of treated plants at 9 months after the treatment (Example 3.4: four olive trees, 150 mg per plant) | Phenotypic improvement of infected olive plants after treatment (Example 3.1: three olive trees, 200 mg per plant suspended in bidistilled water, one every 5 days) | State of treated plants at 9 months after the treatment (Example 3.1: three olive trees, 200 mg per plant, one every 5 days) |
| --- | --- | --- | --- | --- |
| O=C1C=CC(=O)c2c(O)cccc21 [5-hydroxy-naphthalene-1,4-dione] | Phenotypic improvements of the plant were observed with the birth of new shoots on the branches previously in a state of desiccation and disappearance of the crumpled and yellowish colored leaves | still free of crumpled and yellowish colored leaves and dried branches | – | – |
| 5-hydroxy-naphthalen-1,4-dione complexed with copper | – | – | Phenotypic improvements of the plant were observed with the birth of new shoots on the branches previously in a state of desiccation and disappearance of the crumpled and yellowish colored leaves | still free of crumpled and yellowish colored leaves and dried branches |
